pIC50: −log10 of the molar value.
What was measured:
[1] = target: T1, HIF-1α (hypoxia-inducible factor 1α) (Homo sapiens, UniProt Q16665); experiment: Evaluation of HIF-1α inhibitory activity (in vitro); assay type: cell-based; details: for pIC50: HIF-1α inhibitory activity
Description: <Experimental Example 1> Evaluation of HIF-La Inhibitory Activity (In Vitro) The following experiment was performed in order to evaluate inhibitory activity against HIF-1α (hypoxia-inducible factor 1α) of the compound of Example according to an embodiment of the present invention.

[2] = target: T1, HIF-1α (hypoxia-inducible factor 1α); experiment: Evaluation of HIF-1α regulatory activity (in vitro); assay type: cell-based; details: FIG. 2, compared with Comparative Example 1
Description: <Experimental Example 3> Evaluation of HIF-1α Regulatory Activity (In Vitro)
The following experiment was performed in order to evaluate regulatory activity of HIF-1α (hypoxia-inducible factor 1α) of the compound of Example according to an embodiment of the present invention.
FIG. 2 is a graph showing the results of analysis of the regulatory activity of HIF-1α (hypoxia-inducible factor 1α) of the compound of Example according to an embodiment of the present invention, wherein compound 2 is a compound of Comparative Example 1, and compound 34f is a compound of Example 10.

[3] = tested on: retinal neovascularization by hypoxia; experiment: Evaluation of inhibitory activity against retinal neovascularization by hypoxia; assay type: in vivo; details: FIG. 3; compared with Comparative Example 1
Description: <Experimental Example 4> Evaluation of Inhibitory Activity Against Retinal Neovascularization by Hypoxia
The following experiment was performed in order to evaluate inhibitory activity against retinal neovascularization by hypoxia of the compound of Example according to an embodiment of the present invention.
FIG. 3 is a graph showing the results of analysis of the inhibitory activity against retinal neovascularization by hypoxia of the compound of Example according to an embodiment of the present invention, wherein compound 2 is a compound of Comparative Example 1, and compound 34f is a compound of Example 10.

angiogenesis = experiment: Evaluation of inhibitory activity against angiogenesis (in vitro); assay type: cell-based; details: FIG. 1, compared with Comparative Example 1
Description: <Experimental Example 2> Evaluation of Inhibitory Activity Against Angiogenesis (In Vitro)
The following experiment was performed in order to evaluate inhibitory activity against angiogenesis of the compound of Example according to an embodiment of the present invention.
FIG. 1 is a graph showing the results of analysis of inhibitory activity against angiogenesis of the compound of Example according to an embodiment of the present invention, wherein compound 2 is a compound of Comparative Example 1, and compound 34f is a compound of Example 10.

T1 sequence (Q16665 whole entry, looked up): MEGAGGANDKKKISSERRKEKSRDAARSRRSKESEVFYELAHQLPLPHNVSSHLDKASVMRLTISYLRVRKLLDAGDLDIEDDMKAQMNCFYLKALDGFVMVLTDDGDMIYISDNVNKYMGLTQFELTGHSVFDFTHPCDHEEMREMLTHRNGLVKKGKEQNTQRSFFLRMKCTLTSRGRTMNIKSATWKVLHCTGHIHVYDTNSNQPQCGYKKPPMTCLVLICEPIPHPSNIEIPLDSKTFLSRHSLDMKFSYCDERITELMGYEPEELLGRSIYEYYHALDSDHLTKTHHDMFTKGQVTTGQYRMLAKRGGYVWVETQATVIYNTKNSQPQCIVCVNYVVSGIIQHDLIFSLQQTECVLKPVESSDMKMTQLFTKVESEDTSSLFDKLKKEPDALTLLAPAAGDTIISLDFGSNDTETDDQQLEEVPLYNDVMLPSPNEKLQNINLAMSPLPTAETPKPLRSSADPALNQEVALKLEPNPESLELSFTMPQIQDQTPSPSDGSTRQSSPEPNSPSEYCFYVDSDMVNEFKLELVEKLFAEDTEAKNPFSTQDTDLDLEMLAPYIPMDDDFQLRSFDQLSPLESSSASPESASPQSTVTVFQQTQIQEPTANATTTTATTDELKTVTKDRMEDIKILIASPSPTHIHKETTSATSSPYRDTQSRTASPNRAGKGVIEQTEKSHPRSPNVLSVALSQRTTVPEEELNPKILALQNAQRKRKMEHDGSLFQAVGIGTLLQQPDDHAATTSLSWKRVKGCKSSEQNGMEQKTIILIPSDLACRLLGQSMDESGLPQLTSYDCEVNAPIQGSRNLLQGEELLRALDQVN

| Molecule | pIC50 [1] | further results |
| --- | --- | --- |
| 2-(3,4-dimethoxyphenyl)-1-(4-(pyrrolidin-1-yl)phenyl)propan-1-one [Example 11] | 5.58 | – |
| COc1ccc(C(=O)C(C)c2ccc(OC)c(OC)c2)c(OC)c1 (stereo not shown) [Example 2, 1-(2,4-dimethoxyphenyl)-2-(3,4-dimethoxyphenyl)propan-1-one] | < 4.82 | – |
| CCOc1ccc(C(=O)C(C)c2ccc(OC)c(OC)c2)c(OC)c1 (stereo not shown) [Example 3, 2-(3,4-dimethoxyphenyl)-1-(4-ethoxy-2-methoxyphenyl)propan-1-one] | 4.93 | – |
| COc1ccc(C(C)C(=O)c2ccc(OC3CCCCC3)cc2OC)cc1OC (stereo not shown) [Example 4, 1-(4-(cyclohexyloxy)-2-methoxyphenyl)-2-(3,4-dimethoxyphenyl)propan-1-one] | 5.59 | – |
| COc1ccc(C(C)C(=O)c2ccc(N3CCOCC3)cc2OC)cc1OC (stereo not shown) [Example 8, 2-(3,4-dimethoxyphenyl)-1-(2-methoxy-4-morpholinophenyl)propan-1-one] | 5.06 | – |
| COc1ccc(C(C)C(=O)c2ccc(N3CCOCC3)cc2)cc1OC (stereo not shown) [Example 12, 2-(3,4-dimethoxyphenyl)-1-(4-morpholinophenyl)propan-1-one] | 5.16 | – |
| CC(C(=O)c1ccc(N2CCCCC2)cc1)c1ccccc1F (stereo not shown) [Example 13, 2-(2-fluorophenyl)-1-(4-(piperidin-1-yl)phenyl)propan-1-one] | 5.69 | – |
| COc1cc(NCc2ccc(C#N)cc2)ccc1C(=O)C(C)c1ccccc1F (stereo not shown) [Example 16, 4-(((4-(2-(2-fluorophenyl)propanoyl)-3-methoxyphenyl)amino)methyl)benzonitrile] | 5.28 | – |

Further lines, with some results ahead:

| pIC50 [1] | Molecule | further results |
| --- | --- | --- |
| < 4.82 | COc1ccc(C(C)C(=O)c2ccc(N(C)C)cc2OC)cc1OC (stereo not shown) [Example 5, 2-(3,4-dimethoxyphenyl)-1-(4-(dimethylamino)-2-methoxyphenyl)propan-1-one] | – |
| 5.55 | COc1ccc(C(C)C(=O)c2ccc(N3CCCC3)cc2OC)cc1OC (stereo not shown) [Example 6, 2-(3,4-dimethoxyphenyl)-1-(2-methoxy-4-(pyrrolidin-1-yl)phenyl)propan-1-one] | – |
| 5.73 | COc1ccc(C(C)C(=O)c2ccc(N3CCCCC3)cc2OC)cc1OC (stereo not shown) [Example 7, 2-(3,4-dimethoxyphenyl)-1-(2-methoxy-4-(piperidin-1-yl)phenyl)propan-1-one] | – |
| 5.84 | COc1ccc(C(C)C(=O)c2ccc(NCc3ccccc3)cc2OC)cc1OC (stereo not shown) [Example 9, 1-(4-(benzylamino)-2-methoxyphenyl)-2-(3,4-dimethoxyphenyl)propan-1-one] | – |
| 6.22 | COc1ccc(C(C)C(=O)c2ccc(NCc3ccc(C#N)cc3)cc2OC)cc1OC (stereo not shown) [Example 10] | inhibitory activity against HIF-1α (in words) ([1]; comment on Table 2): best inhibitory activity against HIF-1a; HIF-1α regulatory activity [2]: better HIF-1α regulatory activity than that of the compound of Comparative Example 1; inhibitory activity against retinal neovascularization by hypoxia [3]: better inhibitory activity against retinal neovascularization by hypoxia than that of the compound of Comparative Example 1; inhibitory activity against angiogenesis (angiogenesis): better inhibitory activity against angiogenesis than that of the compound of Comparative Example 1 |
| 5.13 | CC(C(=O)c1ccc(NCc2ccccc2)cc1)c1ccccc1F (stereo not shown) [Example 14, 1-(4-(benzylamino)phenyl)-2-(2-fluorophenyl)propan-1-one] | – |
| 5.19 | COc1cc(N2CCCCC2)ccc1C(=O)C(C)c1ccccc1F (stereo not shown) [Example 15, 2-(2-fluorophenyl)-1-(2-methoxy-4-(piperidin-1-yl)phenyl)propan-1-one] | – |

Reference: patent publication US12006283B2, “HIF-1α inhibitor, preparation method therefor, and pharmaceutical composition for preventing or treating angiogenesis-associated eye disease, containing same as active ingredient” (SEOUL NATIONAL UNIVERSITY R&DB FOUNDATION, priority 2018, dated 2024)
